≈ marks a conversion by molar mass, not a printed value. Calls of active or inactive are those of the source. The calls are words filed in the database; no cut-off is given here.

The source of these data is ChEMBL document CHEMBL5579865, “Discovery of Broad-Spectrum Herpes Antiviral Oxazolidinone Amide Derivatives and Their Structure-Activity Relationships” (ACS Med Chem Lett, 2024).

In data set [1] the test system is Cytomegalovirus. Description: Antiviral activity against Cytomegalovirus Smith intraperitoneally infected in BALB/c mouse assessed as reduction in viral burden in salivary gland at 25 mg/kg,ip qd administration measured after 10 days by plaque assay. It is filed as functional, organism-based. The following applies: time 10.0 day.
Data set [2] concerns Cytomegalovirus. Kind of data set: Antiviral activity against Cytomegalovirus Smith intraperitoneally infected in BALB/c mouse assessed as reduction in viral burden in salivary gland at 50 mg/kg,po bid administration measured after 10 days by plaque assay. Type of data set: functional, organism-based. The following applies: route ip, time 10.0 day.
Data set [3] in a line: Inhibition of HCMV DNA polymerase extracted from baculovirus infected Sf21 cells using Heterodimeric nucleic acid as substrate preincubated with enzyme for 30 mins followed by substrate and dATP addition measured after 60 mins by biotinylated UTP incorporation based AlphaLISA assay. Also on record: species or system Human betaherpesvirus 5. In general terms: Bead proximity is the source of the signal in Alpha formats.

Data set [4] in a line: Inhibition of VZV DNA polymerase extracted from baculovirus infected Sf21 cells using Heterodimeric nucleic acid as substrate preincubated with enzyme for 30 mins followed by substrate and dATP addition measured after 60 mins by biotinylated UTP incorporation based AlphaLISA assay. Set-up: species or system Human alphaherpesvirus 3.
Data set [5] relates to Human betaherpesvirus 5. Kind of data set: Antiviral activity against HCMV AD169 infected in human MRC5 cells assessed as reduction in viral replication incubated for 72 hrs in presence of 10 % serum by qRT-PCR analysis. Type of data set: functional, organism-based. The settings on record: Human betaherpesvirus 5, AD169, MRC5, 72 h. In general terms: In qPCR the cycle at which signal appears reflects the starting amount.

Data set [6] has as its system Human alphaherpesvirus 3. Kind of data set: Antiviral activity against VZV Street infected in human MeWo cells assessed as reduction in viral replication incubated for 72 hrs by qRT-PCR analysis. Type of data set: functional, organism-based.
The subject of data set [7] is Human alphaherpesvirus 1. Description: Antiviral activity against HSV-1 F strain infected in African green monkey Vero cells assessed as reduction in viral replication incubated for 72 hrs by qRT-PCR analysis. It is filed as functional, organism-based.
Data set [8] relates to Human alphaherpesvirus 2. Kind of data set: Antiviral activity against HSV-2 G strain infected in African green monkey Vero cells assessed as reduction in viral replication incubated for 72 hrs by qRT-PCR analysis. It is filed as functional, organism-based.
Data set [9] deals with Human alphaherpesvirus 3. Kind of data set: Antiviral activity against VZV Street infected in human MRC5 cells assessed as reduction in viral replication incubated for 72 hrs by qRT-PCR analysis. Type of data set: functional, organism-based. The following applies: Human alphaherpesvirus 3, Street, MRC5, 72 h.
In data set [10] the test system is Human betaherpesvirus 5. Kind of data set: Antiviral activity against HCMV AD169 infected in human MRC5 cells assessed as reduction in viral replication incubated for 72 hrs in presence of 50 % serum by qRT-PCR analysis. Type of data set: functional, organism-based.
Data set [11] can be described thus: Unbound clearance in Wistar rat at 3 mg/kg,iv administration. It is filed as ADME, organism-based. The following applies: in vivo.
The nature of data set [12]: Unbound volume of distribution in Wistar rat at 3 mg/kg,iv or 10 mg/kg,po administration. Type of data set: ADME, organism-based. The settings on record: in vivo.
Data set [13] can be described thus: MRT in Wistar rat at 3 mg/kg,iv or 10 mg/kg,po administration. It is filed as ADME, organism-based. The settings on record: in vivo.
A short description of data set [14]: Oral bioavailability in Wistar rat at 10 mg/kg administration. It is filed as ADME, organism-based. The settings on record: in vivo.
The nature of data set [15]: Unbound AUC in Wistar rat at 3 mg/kg,iv or 10 mg/kg,po administration. Type of data set: ADME, organism-based. The settings on record: in vivo.
The nature of data set [16]: Unbound fraction in Wistar rat plasma at 3 mg/kg,iv or 10 mg/kg,po administration. It is filed as ADME, organism-based.
The target of data set [17] is Voltage-gated inwardly rectifying potassium channel KCNH2 (Homo sapiens, UniProt Q12809). Description: Inhibition of hERG by patch-clamp assay. Type of data set: toxicity. In general terms: The hERG channel carries a current that helps repolarise heart muscle cells.
Data set [18] in a line: Inhibition of Inward-rectifier potassium channel (unknown origin). Set-up: species or system Homo sapiens.
Data set [19] has as its target Voltage-dependent L-type calcium channel subunit alpha-1C (Homo sapiens, UniProt Q13936). Description: Inhibition of Cav1.2 (unknown origin).
Data set [20] concerns the target Sodium channel protein type 5 subunit alpha (Homo sapiens, UniProt Q14524). Description: Inhibition of Nav1.5 (unknown origin).
Data set [21] in a line: Solubility in PBS at pH 7. Type of data set: physicochemical.
The nature of data set [22]: Metabolic stability in human liver microsomes assessed as intrinsic clearance. It is filed as ADME, Microsome. The following applies: read-out: CLH.
Data set [23] deals with Human alphaherpesvirus 1. Kind of data set: Antiviral activity against HSV-1 F strain intranasally infected in BALB/c mouse assessed as increase in mouse survival rate at 120 mg/kg,po bid administrated 2 days before viral infection measured after 2 days. Type of data set: functional, organism-based. The following applies: time 2.0 day.
Data set [24] in a line: Unbound clearance in Wistar rat at 0.05 mg/kg,iv administration. Type of data set: ADME, organism-based. The settings on record: in vivo.
The nature of data set [25]: Unbound volume of distribution in Wistar rat at 0.05 mg/kg,iv or 10 mg/kg,po administration. It is filed as ADME, organism-based. The following applies: in vivo.
The nature of data set [26]: MRT in Wistar rat at 0.05 mg/kg,iv or 10 mg/kg,po administration. It is filed as ADME, organism-based. The following applies: in vivo.
Data set [27] is described as follows: Unbound AUC in Wistar rat at 0.05 mg/kg,iv or 10 mg/kg,po administration. It is filed as ADME, organism-based. The following applies: in vivo.
Data set [28] in a line: Unbound fraction in Wistar rat plasma at 0.05 mg/kg,iv or 10 mg/kg,po administration. Type of data set: ADME, organism-based.
[29] abbreviates: Human betaherpesvirus 5, AD169, MRC5, 72 h, read-out: EC50.
The mark [30] stands for this setting: Human alphaherpesvirus 3, Street, MeWo, 72 h, read-out: EC50.
Where [31] appears, read: Human alphaherpesvirus 1, F strain, Vero, 72 h, read-out: EC50.
The mark [32] stands for this setting: Human alphaherpesvirus 2, G strain, Vero, 72 h, read-out: EC50.

Voltage-dependent L-type calcium channel subunit alpha-1C, sequence (Q13936 whole entry): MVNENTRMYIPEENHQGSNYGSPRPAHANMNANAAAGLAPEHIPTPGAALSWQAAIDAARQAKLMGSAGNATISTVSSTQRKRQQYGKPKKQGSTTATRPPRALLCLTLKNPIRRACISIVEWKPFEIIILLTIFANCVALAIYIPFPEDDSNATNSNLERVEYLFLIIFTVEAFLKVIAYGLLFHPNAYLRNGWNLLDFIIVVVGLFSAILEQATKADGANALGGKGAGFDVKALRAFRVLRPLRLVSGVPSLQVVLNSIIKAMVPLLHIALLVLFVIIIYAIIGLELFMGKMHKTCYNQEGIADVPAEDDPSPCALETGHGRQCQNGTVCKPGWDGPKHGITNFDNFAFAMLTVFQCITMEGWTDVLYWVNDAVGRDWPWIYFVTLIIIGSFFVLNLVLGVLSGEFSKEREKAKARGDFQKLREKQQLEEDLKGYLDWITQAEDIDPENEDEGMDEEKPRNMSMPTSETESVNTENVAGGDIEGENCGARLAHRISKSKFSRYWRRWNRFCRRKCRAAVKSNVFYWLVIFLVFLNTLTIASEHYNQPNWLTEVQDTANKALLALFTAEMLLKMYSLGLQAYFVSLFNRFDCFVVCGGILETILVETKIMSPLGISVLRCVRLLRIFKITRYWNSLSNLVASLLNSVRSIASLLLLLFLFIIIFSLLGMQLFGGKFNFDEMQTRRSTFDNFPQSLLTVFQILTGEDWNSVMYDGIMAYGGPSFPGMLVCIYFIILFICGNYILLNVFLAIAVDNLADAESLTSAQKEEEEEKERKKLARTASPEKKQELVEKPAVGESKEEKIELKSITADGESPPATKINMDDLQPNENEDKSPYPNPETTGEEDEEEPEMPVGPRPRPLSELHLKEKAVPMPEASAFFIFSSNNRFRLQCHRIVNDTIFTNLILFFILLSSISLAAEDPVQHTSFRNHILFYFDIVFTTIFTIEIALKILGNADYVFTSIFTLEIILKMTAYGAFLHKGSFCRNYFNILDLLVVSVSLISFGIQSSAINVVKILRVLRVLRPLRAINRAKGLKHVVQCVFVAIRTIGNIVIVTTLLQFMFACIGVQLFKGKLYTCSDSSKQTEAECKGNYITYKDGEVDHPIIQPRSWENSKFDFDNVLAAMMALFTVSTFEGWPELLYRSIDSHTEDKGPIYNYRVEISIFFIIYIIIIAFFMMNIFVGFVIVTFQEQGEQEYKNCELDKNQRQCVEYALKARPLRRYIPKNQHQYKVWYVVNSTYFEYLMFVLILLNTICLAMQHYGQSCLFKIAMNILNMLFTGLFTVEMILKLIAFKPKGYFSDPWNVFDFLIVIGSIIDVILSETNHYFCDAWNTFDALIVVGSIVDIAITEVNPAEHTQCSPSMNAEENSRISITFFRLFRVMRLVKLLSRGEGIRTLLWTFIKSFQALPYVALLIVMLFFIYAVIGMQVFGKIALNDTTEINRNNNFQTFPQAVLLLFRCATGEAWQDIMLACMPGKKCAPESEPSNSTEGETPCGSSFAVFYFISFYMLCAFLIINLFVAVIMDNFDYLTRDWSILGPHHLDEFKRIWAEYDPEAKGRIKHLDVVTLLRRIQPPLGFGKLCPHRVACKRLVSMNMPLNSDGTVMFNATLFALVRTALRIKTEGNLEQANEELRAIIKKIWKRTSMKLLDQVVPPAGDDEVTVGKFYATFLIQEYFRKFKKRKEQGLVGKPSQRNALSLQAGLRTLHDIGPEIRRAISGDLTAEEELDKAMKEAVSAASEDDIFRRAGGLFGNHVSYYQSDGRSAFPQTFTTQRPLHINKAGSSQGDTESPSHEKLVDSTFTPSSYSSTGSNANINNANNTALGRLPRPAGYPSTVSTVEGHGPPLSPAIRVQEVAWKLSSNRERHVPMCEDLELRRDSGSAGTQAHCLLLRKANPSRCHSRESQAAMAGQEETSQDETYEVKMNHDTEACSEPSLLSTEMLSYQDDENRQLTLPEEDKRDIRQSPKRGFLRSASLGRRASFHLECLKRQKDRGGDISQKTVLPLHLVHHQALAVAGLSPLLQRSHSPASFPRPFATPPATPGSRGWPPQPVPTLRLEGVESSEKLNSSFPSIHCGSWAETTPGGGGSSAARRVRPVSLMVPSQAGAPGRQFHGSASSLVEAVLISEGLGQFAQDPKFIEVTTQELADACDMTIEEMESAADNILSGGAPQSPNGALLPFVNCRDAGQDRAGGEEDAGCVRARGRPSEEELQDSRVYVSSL
Sodium channel protein type 5 subunit alpha, sequence (Q14524 whole entry): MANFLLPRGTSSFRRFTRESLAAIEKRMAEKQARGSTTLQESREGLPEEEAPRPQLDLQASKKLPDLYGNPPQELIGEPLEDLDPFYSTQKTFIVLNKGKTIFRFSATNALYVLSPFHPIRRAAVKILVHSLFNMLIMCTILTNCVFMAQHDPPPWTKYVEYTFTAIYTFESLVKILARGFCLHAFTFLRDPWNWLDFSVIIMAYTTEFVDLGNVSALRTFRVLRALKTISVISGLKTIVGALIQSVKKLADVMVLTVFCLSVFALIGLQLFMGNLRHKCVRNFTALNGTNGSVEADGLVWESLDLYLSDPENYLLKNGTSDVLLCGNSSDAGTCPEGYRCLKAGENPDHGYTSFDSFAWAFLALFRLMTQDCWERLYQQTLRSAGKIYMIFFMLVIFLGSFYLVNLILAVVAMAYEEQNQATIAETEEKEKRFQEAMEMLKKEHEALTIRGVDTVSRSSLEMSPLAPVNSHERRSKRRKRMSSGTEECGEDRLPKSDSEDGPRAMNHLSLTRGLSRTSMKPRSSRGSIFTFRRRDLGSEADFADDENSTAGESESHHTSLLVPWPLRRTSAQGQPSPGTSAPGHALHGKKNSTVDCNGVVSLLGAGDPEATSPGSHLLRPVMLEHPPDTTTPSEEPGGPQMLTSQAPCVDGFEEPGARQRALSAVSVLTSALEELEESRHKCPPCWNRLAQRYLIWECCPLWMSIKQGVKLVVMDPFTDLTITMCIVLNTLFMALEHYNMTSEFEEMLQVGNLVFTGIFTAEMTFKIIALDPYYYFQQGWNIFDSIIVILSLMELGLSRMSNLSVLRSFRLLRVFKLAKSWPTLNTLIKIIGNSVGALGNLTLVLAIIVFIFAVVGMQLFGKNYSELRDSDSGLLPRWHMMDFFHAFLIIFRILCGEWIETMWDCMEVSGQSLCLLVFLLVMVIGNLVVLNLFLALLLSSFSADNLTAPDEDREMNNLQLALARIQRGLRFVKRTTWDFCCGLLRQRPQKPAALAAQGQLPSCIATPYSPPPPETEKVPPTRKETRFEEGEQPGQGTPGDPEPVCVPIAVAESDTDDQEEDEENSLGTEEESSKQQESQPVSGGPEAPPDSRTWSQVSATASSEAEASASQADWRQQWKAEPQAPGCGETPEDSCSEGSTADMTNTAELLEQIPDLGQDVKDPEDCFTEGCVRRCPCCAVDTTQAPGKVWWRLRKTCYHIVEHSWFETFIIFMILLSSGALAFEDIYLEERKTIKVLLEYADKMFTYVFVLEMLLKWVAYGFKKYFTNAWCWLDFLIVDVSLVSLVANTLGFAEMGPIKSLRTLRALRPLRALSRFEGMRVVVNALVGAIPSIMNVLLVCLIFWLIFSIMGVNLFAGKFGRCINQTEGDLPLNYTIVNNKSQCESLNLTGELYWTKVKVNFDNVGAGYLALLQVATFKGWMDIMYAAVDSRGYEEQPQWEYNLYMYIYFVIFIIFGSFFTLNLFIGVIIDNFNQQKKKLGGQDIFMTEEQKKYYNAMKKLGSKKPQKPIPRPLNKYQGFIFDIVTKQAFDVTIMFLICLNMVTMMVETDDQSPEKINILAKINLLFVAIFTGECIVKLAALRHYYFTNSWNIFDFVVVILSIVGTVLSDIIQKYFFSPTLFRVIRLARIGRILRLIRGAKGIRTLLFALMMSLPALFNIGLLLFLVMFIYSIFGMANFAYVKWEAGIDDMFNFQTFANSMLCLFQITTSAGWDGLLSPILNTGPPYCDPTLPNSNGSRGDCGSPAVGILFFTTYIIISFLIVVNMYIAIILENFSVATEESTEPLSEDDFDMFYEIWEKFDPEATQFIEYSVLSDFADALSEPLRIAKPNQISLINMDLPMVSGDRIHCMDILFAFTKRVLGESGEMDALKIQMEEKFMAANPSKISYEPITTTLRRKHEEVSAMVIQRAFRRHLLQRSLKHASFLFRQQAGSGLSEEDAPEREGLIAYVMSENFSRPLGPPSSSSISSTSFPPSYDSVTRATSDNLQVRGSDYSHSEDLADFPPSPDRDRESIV

For the compound `Nc1nc2c(ncn2COC(CO)CO)c(=O)[nH]1`, the result in data set [1] and in [2] was inactive.

Broadly, the IC50 is the concentration needed to halve the response being measured. The term EC50 denotes the concentration at which the effect is half-maximal. Take `O=C(Nc1ccc(Cl)cc1)Nc1ccc(C[C@H]2COC(=O)N2)cc1`: the IC50 in data set [3] stood at 480 nM; in data set [4], 210 nM. Besides, the EC50 in data set [5] is 1110 nM; in data set [6], “Not Active”; in data set [7] it was “Not Active”; in [8], “Not Active”.

In the case of `COc1nc(NC(=O)Cc2ccc(Cl)cc2)cnc1C[C@H]1COC(=O)N1`, the IC50 worked out at 24100 nM in data set [3] and 23800 nM in [4]. The EC50 in data set [5] was over 80200 nM; in data set [7] it was “Not Active”; in data set [9], over 80200 nM; in data set [8], “Not Active”.

For `O=C1N[C@@H](Cc2ccc3c(c2)CCN(Cc2ccc(Cl)cc2)C3=O)CO1`, the IC50 amounted to 27600 nM in data set [3] and 40300 nM in [4]. Further, the EC50 in [5] is 44200 nM; in data set [6] it was “Not Active”; in data set [7], “Not Active”; in data set [8] it was “Not Active”.

The term MRT denotes the average time that molecules of a dose stay in the body. As a reminder, the bioavailability is dose-corrected exposure relative to a reference, in per cent. Broadly, the fraction unbound is free concentration divided by total concentration. As a reminder, the solubility is the dissolved amount per volume that the medium holds. With `COc1cc(NC(=O)Cc2ccc(Cl)cc2)ccc1C[C@H]1COC(=O)N1`, the half-maximal inhibitory concentration (IC50) was determined as 49 nM in data set [3]; 17 nM in data set [4]; 20000 nM in data set [17]; 24500 nM in data set [18]; 12900 nM in data set [19]; 10500 nM in data set [20]. In addition, the EC50 came out at 370 nM in [10] (setting [29]), 97 nM in data set [6] (setting [30]), 100 nM in data set [7] (setting [31]) and 170 nM in data set [8] (setting [32]). In addition, the CL free in data set [11] is 605 mL/min/kg. In data set [12], this compound had a Vdu of 24 L/kg. The mean residence time MRT in data set [13] stood at 42 min. The compound also returned a bioavailability in [14] of 27%. The same compound came in with a fAUC in data set [15] of 0.228 µM·h. For the same compound, the fraction unbound in [16] amounted to 0.027. The amount in solution in data set [21] (solubility) came to 161 µM (≈ 60.3 µg/mL). In addition, the CLint scaled in data set [22] is 16 mL/min/kg.

Consider `COc1cc(NC(=O)Cc2ccc(S(F)(F)(F)(F)F)cc2)ccc1C[C@H]1COC(=O)N1`, for which the values for the IC50 in data set [3] and in [4] were 944 nM and 2220 nM, respectively. The EC50 entry in data set [10] is “Not Active”; in data set [7], “Not Active”; in [9], 52700 nM; in data set [8], “Not Active”.

As for `Nc1nc2c(ncn2COCCO)c(=O)[nH]1`, the result in [23] was Active.

`COc1nc(NC(=O)Cc2ccc(Cl)cc2)ccc1C[C@H]1COC(=O)N1`: the IC50 in [3] stood at 44 nM; in [4], 15 nM; in data set [17] it was 16000 nM; in data set [18], 14200 nM; in [19], 13500 nM; in data set [20], 10000 nM. The concentration for a half-maximal effect (EC50) in [10] (setting [29]) is 249 nM; in data set [6] (setting [30]), 46 nM; in data set [7] (setting [31]), 70 nM; in data set [8] (setting [32]), 85 nM. In addition, the CL free in data set [11] amounted to 444 mL/min/kg. In addition, in [12], the Vdu stood at 15 L/kg. In data set [13], this compound yielded an MRT of 36 min. The compound also showed a bioavailability in data set [14] of 62%. Further, the fAUC in [15] is 0.299 µM·h. In addition, in data set [16], the fraction unbound came out at 0.025.

As to `COc1cc(NC(=O)Cc2ccc(OC(F)(F)F)cc2)ccc1C[C@H]1COC(=O)N1`, the 50% inhibitory concentration (IC50) in data set [3] worked out at 1290 nM; in data set [4], 1690 nM. Further, the EC50 result is “Not Active” in data set [10], “Not Active” in data set [7], 64500 nM in [9] and “Not Active” in [8].

For `COc1cc(NC(=O)Cc2ccc(Cl)cc2Cl)ccc1C[C@H]1COC(=O)N1`, the IC50 was determined as 16 nM in [3]; 12 nM in [4]; 20900 nM in [18]; 9600 nM in [19]; 8200 nM in [20]. Moreover, the EC50 in data set [10] (setting [29]) came to 349 nM; in data set [6] (setting [30]), 154 nM; in data set [7] (setting [31]), 198 nM; in [8] (setting [32]), 222 nM. In data set [24], the CL free amounted to 720 mL/min/kg. In addition, the Vdu in data set [25] was determined as 33 L/kg. In addition, the MRT in [26] was determined as 42 min. Moreover, in [27], the fAUC amounted to 0.003 µM·h. The fraction unbound in data set [28] is 0.022. This compound returned a solubility in data set [21] of 28 µM (≈ 11.5 µg/mL). In addition, in data set [22], the CLint scaled turned out to be 20 mL/min/kg.

For `COc1cc(NC(=O)Cc2ccc(Br)cc2)ccc1C[C@H]1COC(=O)N1`, the IC50 is under 4 nM in data set [3]; under 4 nM in [4]; 21100 nM in data set [18]; 11100 nM in data set [19]; 12100 nM in [20]. Also, the EC50 in [10] (setting [29]) was found to be 420 nM; in [7] (setting [31]) it was 124 nM; in [9] it was 231 nM; in [8] (setting [32]), 110 nM. In addition, in [24], the CL free is 1168 mL/min/kg. Moreover, the Vdu in data set [25] was 68 L/kg. This compound also returned an MRT in [26] of 54 min. In data set [14], the bioavailability was 23%. The compound further yielded a fAUC in data set [27] of 0.002 µM·h. Moreover, the fraction unbound in [28] amounted to 0.022. Further, the concentration in solution in data set [21] (solubility) came to 90 µM (≈ 37.7 µg/mL). The CLint scaled in data set [22] was under 16 mL/min/kg.

For the compound `COc1cc(NC(=O)Cc2ccc(Cl)cc2)ncc1C[C@H]1COC(=O)N1`, the values for the IC50 in data set [3] and in data set [4] were 15900 nM and 6290 nM, respectively. Also, the EC50 in [5] was 51200 nM; in [7], “Not Active”; in [9], over 80200 nM; in data set [8] it was “Not Active”. This compound also showed a solubility in data set [21] of under 2 µM.
